These results are taken from US20210338647A1, “Combination of Acetylcholinesterase Inhibitor and 5-HT4 Receptor Agonist As Neuroprotective Agent In the Treatment of Neurodegenerative Diseases” (UNIVERSITE DE CAEN NORMANDIE, priority 2018, published 2021).

For test [1], the system named is rat primary hippocampal neurons injured with Aβ 1-42. Put plainly: Number of synapses (PSD95/SYN overlap) in primary culture of hippocampal neurons injured with Aβ 1-42. In kind it is cell-based. The conditions noted are these: from 5 nM to 1 μM; Aβ 1-42 injured hippocampal neurons; Example 1. As to the method:
Rat hippocampal neurons were cultured as described by Callizot et al. (2013) J. Neurosci. Res. 91706-716. Pregnant female rats of 17 days gestation (Rats Wistar; Janvier Labs France) were killed using a deep anesthesia with CO2 chamber followed by a cervical dislocation. Then, fetuses were removed from the uterus and immediately placed in ice-cold L15 Leibovitz medium with a 2% penicillin (10,000 U/ml) and streptomycin (10 mg/ml) solution (PS) and 1% bovine serum albumin (BSA). Hippocampal neurons were treated for 20 min at 37° C. with a trypsin-EDTA solution at a final concentration of 0.05% trypsin and 0.02% EDTA. The dissociation was stopped by adding Dulbecco's modified Eagle's medium (DMEM) with 4.5 g/l of glucose, containing DNAse I grade 11 (final concentration 0.5 mg/ml) and 10% fetal calf serum (FCS). Cells were mechanically dissociated by three forced passages through the tip of a 10-ml pipette and then centrifuged at 515×g for 10 min at 4° C. The supernatant was discarded, and the pellet was resuspended in a defined culture medium consisting of Neurobasal medium with a 2% solution of B27 supplement, 2 mmol/l of L-glutamine, 2% of PS solution, and 10 ng/ml of brain-derived neurotrophic factor (BDNF). Viable cells were counted in a Neubauer cytometer, using the trypan blue exclusion test. […] The medium was changed every 2 days.
The hippocampal neurons were exposed with Aβ solutions (see below) after 17 days of culture. The Aβ1-42 preparation was done following the procedure described by Callizot et al. (2013) J. Neurosci. Res. 91706-716. Briefly, Aβ1-42 peptide was dissolved in the defined culture medium mentioned above, at an initial concentration of 40 μM. This solution was gently agitated for 3 days at 37° C. in the dark and immediately used after being properly diluted in culture medium to the concentrations used (20 μM (plate 1) or 2.5 μM (plate 2) corresponding to 2 μM or 0.25 μM of oligomers (AβO) respectively).
Donecopride fumarate was solved in culture medium and preincubated 1 h before Aβ application. Aβ1-42 preparation was added to a final concentration of 20 or 2.5 μM (=2 μM or 0.25 μM of AβO, evaluated by automatic Western Blot) diluted in control medium in presence of Donecopride.
Donecopride fumarate (Donecopride) was tested on one culture in a 96 well plate (6 wells per conditions). The compound was preincubated one hour before […] application. The following conditions were assessed:
After permeabilization with 0.1% of saponin, cells were incubated for 2 h with:
a) mouse monoclonal antibody anti post synaptic density 95 kDa (PSD95) at a dilution of 1/100 in PBS containing 1% fetal calf serum and 0.1% of saponin.
b) Rabbit polyclonal antibody anti-synaptophysin (SYN) at the dilution of 1/100 in PBS containing 1% fetal calf serum and 0.1% of saponin.
For each condition, 40 pictures per well were taken using ImageXpress (Molecular Devices) with 40× magnification. All images were taken with the same acquisition parameters.
Synapses evaluation was performed automatically by using Custom module editor (Molecular Devices).
Total number of synapses (overlapping between PSD95/SYN).
To assess the formation of synapses, the distribution of PSD-95, a post-synaptic marker, and synaptophysin, a pre-synaptic marker, was studied. A structure positive for both PSD-95 and synaptophysin staining was considered as a synapse.
Rat hippocampal neurons were cultured as described by Callizot et al. (2013) J. Neurosci. Res. 91:706-716.

Test [2] concerns 5XFAD mice. The test is described as follows: Aβ42 concentration in cerebrospinal fluid of chronically treated 5XFAD mice. In kind it is in vivo, mouse. The following applies: 1 mg/kg twice a week for 3 months, versus controls. As to the method:
(§1) 5XFAD mice received chronic treatments with drugs or vehicle according to 2 different protocols. In each experiment, drugs or vehicle solution were administered i.p. twice a week (1 mg/kg). In “Protocol 1”, mice (n=6-7 mice per group) were treated with compounds for two months, from 2 to 4 months of age. In “Protocol 2”, mice (n=7) were treated with compounds for three months, from 1 month to 4 months of age. At the end of each protocol, mice were anesthetized with a mixture of 100 mg/kg ketamine and 10 mg/kg xylazine in saline solution and perfused transcardially with PBS. Brains were quickly isolated on ice, the olfactory bulbs and cerebellum removed and the two hemispheres divided. One hemisphere was frozen on dry ice and stored at −80° C. for biochemical analysis, while the other was post-fixed in 4% PFA for immunohistochemistry (IHC).
(§2) 28 female 5XFAD mice (C57BL/6J genetic background) were used in this study. Mice received vehicle or compounds (1 mg/kg) i.p., twice a week for three months, from 1 to 4 months of age.

Test [3] deals with 5XFAD mice. The test is described as follows: Novel object recognition test in chronically treated 5XFAD mice. The following applies: 5XFAD females, 1 mg/kg twice a week for 3 months. In kind it is in vivo, mouse. As to the method:
as §1, §2

Test [4] deals with 5XFAD mice. Put plainly: Amyloid plaque number (thioflavin T staining) in brain sections of 5XFAD mice. It counts as in vivo, mouse. The conditions noted are these: 1 mg/kg twice a week for 3 months, versus controls. As to the method:
as §1
Thirty-micrometer-thick sections were cut using a vibratome (Microm HM 650V, Thermo Scientific, Saint Herblain, France) and stored in cryoprotectant medium at −20° C. […]
Images were acquired with an Axiolmager Z1 microscope (Carl Zeiss S.A.S., Marly le Roi, France). […] GFAP expression was quantified using Image J software and results are expressed as area fractions. […]

Test [5] concerns 5XFAD mice. The test is described as follows: Astrogliosis (GFAP staining) in brain sections of 5XFAD mice. In kind it is in vivo, mouse. The following applies: 1 mg/kg twice a week for 3 months, versus controls. As to the method:
as §1
Thirty-micrometer-thick sections were cut using a vibratome (Microm HM 650V, Thermo Scientific, Saint Herblain, France) and stored in cryoprotectant medium at −20° C. For the labeling of amyloid plaques, free-floating tissue sections of frontal cortex, hippocampus and entorhinal cortex (coordinates from the bregma: frontal cortex=1.98 mm, hippocampus=−1.94 mm, entorhinal cortex=−3.08 mm) were extensively washed in PBS and then incubated in blocking solution (PBS; 3% BSA; 0.1% Triton X-100) for 1 h. Sections were stained with Hoechst dye (1:1000, Life Technologies, Saint Aubin, France) for 15 minutes to detect cell nuclei and then with freshly prepared thioflavin T solution (#T3516-5G, Sigma-Aldrich) (final concentration: 0.01 mg/ml in blocking buffer) for 15 minutes. After washing in 70% ethanol for 5 minutes, samples were mounted on poly-lysine slides with coverslips. For GFAP (glial fibrillary acidic protein) staining, free-floating brain sections were blocked as before and incubated with polyclonal rabbit anti-GFAP (1:1000, Z0334, Dako, Les Ullis, France) at 4° C. overnight. After thioflavin T staining and washing with 70% ethanol, the secondary Alexafluor 594 goat anti-rabbit antibody (1:1000, A11012, Life Technologies) was added for 2 h. PBS washes and mounting were performed as described before.
Images were acquired with an Axiolmager Z1 microscope (Carl Zeiss S.A.S., Marly le Roi, France). Analysis of thioflavin T staining was performed blindly and data are presented as the mean number of particles per mm^2 in two to three tissue sections from the same brain area/animal (Image J software). GFAP expression was quantified using Image J software and results are expressed as area fractions.
as §2

Each structure is given as a SMILES string.

Regarding `COc1cc(N)c(Cl)cc1C(=O)CCC1CCN(CC2CCCCC2)CC1` [Donecopride], the “Preservation of the number of synapses” value in test [1] was “preserve the number of synapses, on a dose dependent manner”. Besides, in the test with 5XFAD mice [2], the “Aβ42 concentration in cerebrospinal fluid (CSF)” value is “not significantly different compared to controls”. In the test with 5XFAD mice [3], the “Total exploration time during the training session (NOR test)” value is reported as “did not differ significantly”. Besides, the “Recognition memory: time exploring novel versus familiar object (NOR test)” value in the test with 5XFAD mice [3] (24 h interval between training and test) is “able to prevent memory alteration”. In the test with 5XFAD mice [4], the “Amyloid plaque number in hippocampus” value is “not significantly different compared to controls”. In the test on 5XFAD mice [5], the “GFAP staining in frontal cortex” value is reported as “not significantly different compared to controls” and the “GFAP staining in hippocampus” value is recorded as “not significantly different compared to controls”.
